US8404866B2, “Substituted heterocyclic mercaptosulfonamide metalloprotease inhibitors” (Florida State University Research Foundation, priority 2008, dated 2013)
Where a name gives a salt, the structure may show the parent alone.

Assays:
[1] = tested on: human mesenchymal stem cells (hMSC); experiment: MMPI cytotoxicity / growth of hMSC (trypan blue count); type: cell-based; conditions: 1 nM to 100 μM, 24 hours
Description: Passage 3 human adult bone marrow-derived mesenchymal stem cells (hMSCs, Tulane Center for Gene Therapy) were plated for a recovery phase of 24 hours at 37° C. and 5% CO2 in Alpha Minimum Essential Medium (αMEM, Sigma Aldrich) containing L-glutamine but without ribonucleosides or deoxyribonucleosides, 16.5% FBS, ˜2-4 mM L-glutamine, and penicillin and streptomycin as antibiotics. After the recovery phase, hMSCs were seeded into 6-well plates at a density of ˜60 cells/cm^2 within each well containing 2 mL of cell culture medium. Fresh cell culture medium was added every 3 days until the cells reached a confluency of approximately ˜70% at which media was changed to the conditioned forms necessary for observing MMPI cytotoxicity.
(§1) Upon reaching the desired confluency, each cell type was treated with the respective fresh media that was conditioned with a logarithmic panel of MMPI concentrations ranging from 1 nM to 100 μM. Specifically, each of the inhibitors were dissolved in an appropriate amount of 100% EtOH to generate 8 mM stock solutions from which an aliquot was used to produce serial dilutions with either SmBm or αMEM. The conditioned media was added to either hCASMCs or hMSCs and incubated for 24 hours. […] In order to quantify the levels of toxicity these inhibitors had on hCASMC and hMSC growth and viability, the cells were treated with trypan blue and counted via a hemocytometer. […]

[2] = tested on: human brain microvascular endothelial cells (hBMECs); experiment: Endothelial cell migration and wound-healing assay; type: cell-based; conditions: at 3 μM and above, 24 hours
Description: Culture of human brain microvascular endothelial cells: Human brain microvascular endothelial cells (hBMECs) were cultured with EGM-2MV Microvascular Endothelial Cell Medium-2 1 kit Bullet Kit, 5% fetal bovine serum, with or without treatments with synthetic matrix metalloproteinase inhibitors (MMPIs), at 37° C. and 5% CO2.
Endothelial cell migration and wound-healing assays: All experiments for this phase were performed in triplicate, and each consisted of […] wounded cultures utilizing serial concentrations of MMPIs: (1) an untreated control; (2) 100 μM MMPI; (3) 30 μM MMPI; (4) 10 μM MMPI; (5) 3 μM MMPI; (6) 1 μM MMPI; (7) 100 nM MMPI; (8) 10 nM MMPI; and (9) 1 nM MMPI. A 1 mL pipette tip was utilized to create a linear wound in a confluent monolayer of hBMECs. A fine, sterile needle was used to demarcate a cell-free “wounded field”. All cultures were photographed at that time. After 24 hours, the wounded cell culture was washed three times with phosphate buffered saline, fixed with 4% paraformaldehyde for 10-20 min, and stained with 0.1% crystal violet for 10-20 min. The stained culture was washed with ddH2O three times and left overnight to air dry. […] The density of the cell coverage in the wounded field was quantified utilizing the integrated morphometry analysis (IMA) (Metamorph System v.4.6r8, University Imaging Corp.). […]

[3] = tested on: human coronary artery smooth muscle cells (hCASMC); experiment: MMPI cytotoxicity / growth of hCASMC (trypan blue count); type: cell-based; conditions: 24 hours
Description: Passage 7 human coronary artery smooth muscle cells (hCASMCs) were plated in a 10 cm dish containing 20 mL of smooth muscle basal medium (SmBm, Lonza, Cat. No. CC-3182) supplemented with 0.1% insulin, 0.1% epidermal growth factor (rhEGF), 0.2% fibroblast growth factor-B (rhFGF-B), 0.1% gentamicin/amphotericin (antibiotics), and 5% FBS. The cells were incubated for 24 hours at 37° C. and 5% CO2, with 20 mL of fresh SmBm added the following day. Fresh SmBm was added every 2 days until the culture was ˜70-80% confluent and contained a minimum of 5 mitotic figures when viewed at 100× magnification. At this time, cells were then trypsinized and seeded into 24-well plates at an initial density of 3,500 cells/cm^2 and grown to ˜60% confluence prior to MMPI treatment.
as §1, with “αMEM.” for “αMEM. The conditioned media was added to either hCASMCs or hMSCs and incubated for 24 hours.”

| melting point | Compound | hMSC growth curve [1] | inhibition on hBMEC wound healing [2] | hCASMC growth ([3]; lower concentrations, compared to identical concentrations of YHJ-6-286 and YHJ-7-23) | hCASMC growth curve ([3]; 1 nM to 100 μM) |
| --- | --- | --- | --- | --- | --- |
| 170 to 171 °C | NC(=O)N1C[C@H](NS(=O)(=O)c2ccc(Oc3ccccc3)cc2)[C@@H](S)C1 (racemic) [Example 1, (±)-N-Carbamoyl-trans-3-(4-phenoxybenzenesulfonamido)-4-mercaptopyrrolidine] | erratic results | pretty good inhibition |  |  |
|  | O=S(=O)(N[C@H]1CNC[C@@H]1S)c1ccc(Oc2ccccc2)cc1 (racemic) [Example 3, (±)-trans-3-(4-Phenoxybenzenesulfonamido)-4-mercaptopyrrolidine Hydrochloride] |  |  | increased hCASMC growth nearly two-fold |  |
|  | CN([C@H]1CN(C(N)=O)C[C@@H]1S)S(=O)(=O)c1ccc(Oc2ccccc2)cc1 (racemic) [Example 4, (±)-N-Carbamoyl-trans-3-(N-methyl-4-phenoxybenzenesulfonamido)-4-mercaptopyrrolidine] | steadily increased as the concentration of YHJ-7-23 was decreased |  |  | local minimum originating at 300 nM and minimizing at ˜30 nM |
| 142 to 143 °C | O=C(OCc1ccccc1)N1C[C@H](NS(=O)(=O)c2ccc(Oc3ccccc3)cc2)[C@@H](S)C1 (racemic) [Example 5, (±)-N-(Benzyloxycarbonyl)-trans-3-(4-phenoxybenzenesulfonamido)-4-mercaptopyrrolidine] |  |  |  |  |
